Data: ChEMBL document CHEMBL1136950, “Thiopyrophosphoantigens: solid-phase synthesis and in vitro characterization of a new class of Vgamma9 Vdelta2 T cells activators” (J Med Chem, 2009)
Active and inactive are the calls of the source. The rule behind the calls is not given here.

Tests used:
T-cell [1] = assay: Immunostimulatory activity in human Vgamma9/Vdelta2 T cells assessed as TNFalpha production after 12 hrs by ELISA; format: functional, cell-based
[2] = Stability in presence of alkaline phosphatase; conditions: isolated protein
[3] = Stability in presence alkaline phosphatase after 20 mins by HPLC-MS analysis
[4] = Stability in presence alkaline phosphatase after 60 mins by HPLC-MS analysis
[5] = Stability in presence alkaline phosphatase after 30 mins by HPLC-MS analysis
T-cell [6] = assay: Immunostimulatory activity in human Vgamma9/Vdelta2 T cells assessed as expansion induces at 20 uM; format: functional, cell-based

SMILES | EC50 (T-cell [1]) [µM] | also measured
C=CCCCCCSP(=O)(O)OP(=O)(O)O | 6.3 | 
O=P(O)(O)OP(=O)(O)SCCOCCCl | 0.39 | 
CC1(CCSP(=O)(O)OP(=O)(O)O)COC1 | 14 | 
C=C(C)CCSP(=O)([O-])OP(=O)([O-])[O-].[Na+].[Na+].[Na+] | 3.75 | Stability [2]: 94%; remaining at 20 min [3]: 48%; remaining at 1 h [4]: 27%; remaining at 0.5 h [5]: 54%
CCSCCCSP(=O)(O)OP(=O)(O)O | 0.055 | 
O=P(O)(O)OP(=O)(O)SCCCCCl | 100 | 
CC(O)CCSP(=O)(O)OP(=O)(O)O (stereo not drawn) | 75 | 
O=P(O)(O)OP(=O)(O)SCCCCF | 10.8 | 
C/C(=C\CSP(=O)(O)OP(=O)(O)O)CO | 0.0048 | Activity (T-cell [6]): Active
N#CCCCCSP(=O)(O)OP(=O)(O)O | 1 | 
O=P(O)(O)OP(=O)(O)SCCC1OCCO1 | 0.056 | 
O=P(O)(O)OP(=O)(O)SCCOC1CCCCO1 (stereo not drawn) | 12 | 
O=P(O)(O)OP(=O)(O)SCc1ccccc1 | 55 | 
